According to patent US9603859B2, “Methods and products for increasing the rate of healing of tissue wounds” (BRIGHAM YOUNG UNIVERSITY, priority 2011, dated 2017):

Assays:
[1] = tested on: Mixed-species biofilms of S. aureus and P. aeruginosa; test: Mixed-species biofilm susceptibility, live/dead staining; type: cell-based; details: biofilms grown in collagen-coated plates for 24 hours
[2] = tested on: fungal infection of the skin (summer itch); test: Treatment of fungal infection of the skin (summer itch) in a show mare; type: in vivo; details: horse; 0.04% solution in water twice daily
Text: A show mare developed an uncontrollable fungal infection of the skin. This malady is commonly referred to as summer itch. A 0.04% solution of CSA-44 in water was used twice daily for 3 weeks resulting in complete regrowth of normal skin and hair. Normal treatment time periods for this problem usually range from 3 to 4 months.

[3] = tested on: laceration to left hind cannon region; test: Treatment of laceration to left hind cannon region of a broodmare; type: in vivo; details: horse; 0.04% solution in water twice daily; no wrap
Method: A reining broodmare in Texas was involved in an accident resulting in a laceration to her left hind cannon region. The wound was 3 inches in length and 2 inches wide. The laceration extended all the way to the cannon bone, exposing the periosteum. This wound was also treated with a 0.04% solution of CSA-44 in water twice daily. No wrap was applied (i.e., no immobilization). The wound closed in 11 days with normal hair growth at 30 days. This type of wound would usually require aggressive wraps for 3 months with the possibility of other procedures being necessary for the excessive granulation tissue that commonly develops.

[4] = tested on: torn right front shoulder wound; test: Treatment of torn right front shoulder wound in a horse; type: in vivo; details: 0.04% solution in water sprayed twice a day
Method: This wound occurs commonly in horses and usually takes 3 to 6 months to heal. Typically this wound will result in a significant loss of muscle in the region. This wound was treated twice a day with a 0.04% solution of CSA-44 in water. The tissue treatment composition was applied by spraying sufficient composition to wet the entire surface of the wound.

[5] = tested on: scratches (fungal infection of the lower extremities with secondary bacterial infection); test: Treatment of extreme case of scratches in a horse; type: in vivo
Text: A horse with an extreme case of scratches was successfully healed using CSA. Scratches is a fungal infection of the lower extremities in horses. This infection usually results in not only a fungal but also a secondary bacterial infection. In this case, the horse developed severe and debilitating granulation tissue of the ankle resulting in poor mobility due to cracking and bleeding. […] The chronic infection persisted for over two years despite the multiple attempts to treat with an antimicrobial. Due to the debilitating wound the horse was slated for slaughter. […] Normal hair growth and tissue was present in 4 weeks.

[6] = tested on: chronic non-healing oral cutaneous fistula; test: Treatment of chronic non-healing oral cutaneous fistula in a horse; type: in vivo
Text: A horse with a chronic non-healing oral cutaneous fistula was first treated with two prior art treatments with no success. The first treatment was with an aqueous spray of Vetericyn (0.007% hypochlorite) for a period of 7 days. […]

primary human MSC cells = test: Wound healing array q-PCR gene expression in mesenchymal stem cells; type: cell-based; details: 8 hours treatment
Text: To determine the role of synthetic Ceragenins CSA-13, 44 and 90 in wound healing using mesenchymal stem cells (MSC), targeted mRNA panels from SABiosciences, and primary cells from Lonza were selected. Cells were purchased from Lonza.com and used fresh for each test using recommended media and culture conditions. After treatment, mRNA was isolated using Qiagen RNeasy Mini Kit®, and quantified using a NanoDrop 2000® by UV at 260 nm and 260/280 ratio for purity. cDNA was made using a First Strand Kit® from SABiosciences and processed for real time PCR using a kit from the same company for selected analysis of wound healing pathways. Results from q-PCR were uploaded to the SABiosciences site and to Ingenuity.com web site for analysis and pathway mapping. SABiosciences wound healing array plates (Cat# PAHS-121) and innate/acquired immune response plates (PAHS-052) were used. These arrays are fully validated when used as recommended. On day 1, primary human MSC cells were plated at 200,000 cells/well using 6-well plates with 3 ml of recommended media—hMSC Basal Medium+BulletKit (50 ml Growth Supplement, 10 ml L-Glutamine and 0.5 ml Gentamicin Sulfate Amphotercin-B) for 24 hours. Only early passages of cells were used, and never from frozen stock. On day 2, cells were treated with compounds dissolved in DMSO diluted 1:1000 or more to avoid effects of the solvent. Final testing concentration for CSA-13 was 5.0 μM. Treatment lasted 8 hours, and was followed by RNA isolation using QIAGEN RNeasy Mini Kit® (74104). RNA was measured at 260/280 nm using a NanoDrop 2000® and normalized to 2.4 ng per well, cDNA preparation was done using QIAGEN First Strand kit 330401. q-PCR was run as absolute quantification and threshold set at 0.1 units. Dendritic cells were plated at 500,000 cells/well using 24-well plate with 500 ul of Lonza LGM-3 Complete Growth Medium with and without compound. Treatment lasted 8 hours, and was followed by RNA isolation using QIAGEN RNeasy Mini Kit® (74104). RNA was measured at 260/280 nm using NanoDrop2000® and normalized to 2.4 ng per well, cDNA preparation was done using QIAGEN First Strand kit 330401. PCR was run as absolute quantification and threshold set at 0.1 units. For the wound healing array, strong upregulation of growth factors such as HB-EGF and cell migration factors such as MMP1 and CXCL2 were found, indicating a clear potential for CSA as a modulator of wound healing. Additional gene expression data is provided in Tables 1-3 for CSA-13, 44, and 90, respectively.

For Dermaseptin S1, the anti-biofilm activity [1] was “increased in anti-biofilm activity when shortened to the first 15 amino acids”.

`CCCCCCCCOC(=O)CC[C@@H](C)[C@H]1CC[C@H]2[C@@H]3[C@H](OC(=O)CCN)C[C@@H]4C[C@H](OC(=O)CCN)CC[C@]4(C)[C@H]3C[C@H](OC(=O)CCN)[C@]12C` [CSA-44] was tested, and the “treatment time to complete regrowth of normal skin and hair” value [2] was 3 weeks, the “time of normal hair growth” value [3] was 30 days and the “time until wound closed” value [3] was 11 days. The “muscle loss after healing” value [4] was “without any apparent muscle loss”, the “time until wound closed and completely healed” value ([4]; wound 4 x 6 inches, 3 inches deep) was 28 days and the “time until normal hair growth and tissue present” value ([5]; 0.04% in water sprayed twice daily) was 4 weeks. The “outcome of wound treatment” value ([5]; CSA-44 0.04% in water sprayed twice daily for four weeks, comparators before CSA) was “successfully treated”, the “time to closure of the fistula and healthy tissue” value ([6]; 0.04% CSA-44 in water sprayed once daily) was 7 days and the “outcome of wound treatment” value ([6]; Vetericyn (0.007% hypochlorite) aqueous spray 7 days, Furacin Salve daily 5 days, 0.04% CSA-44 in water sprayed once daily 7 days) was “successfully treated”. The “Fold Regulation ACTA2” value (primary human MSC cells) was −1.9377, the “Fold Regulation ACTB” value (primary human MSC cells) was −1.7981 and the “Fold Regulation CCL2” value (primary human MSC cells) was −3.1925. For the same compound, the “Fold Regulation CDH1” value (primary human MSC cells) was −2.7158, the “Fold Regulation COL1A2” value (primary human MSC cells) was 1.5483 and the “Fold Regulation COL3A1” value (primary human MSC cells) was 1.7385. For the same compound, the “Fold Regulation COL4A3” value (primary human MSC cells) was −2.4845, the “Fold Regulation CTGF” value (primary human MSC cells) was −24.5295 and the “Fold Regulation CTSK” value (primary human MSC cells) was 1.6388. The “Fold Regulation CTSL2” value (primary human MSC cells) was 1.7924, the “Fold Regulation EGFR” value (primary human MSC cells) was 1.5364 and the “Fold Regulation FGF7” value (primary human MSC cells) was 4.84. The “Fold Regulation HGF” value (primary human MSC cells) was 3.1098, the “Fold Regulation IGF1” value (primary human MSC cells) was 1.6877 and the “Fold Regulation ITGB6” value (primary human MSC cells) was 1.6323. For the same compound, the “Fold Regulation MMP9” value (primary human MSC cells) was 1.5543, the “Fold Regulation SERPINE1” value (primary human MSC cells) was −2.9618 and the “Fold Regulation TGFBR3” value (primary human MSC cells) was −2.0462. For the same compound, the “Fold Regulation TIMP1” value (primary human MSC cells) was 1.6126, the “Fold Regulation WISP1” value (primary human MSC cells) was −1.9722 and the “Fold Regulation ANGPT1” value (primary human MSC cells; CSA-13 at 5.0 μM) was −2.0857. For the same compound, the “Fold Regulation CCL7” value (primary human MSC cells; CSA-13 at 5.0 μM) was 2.1961, the “Fold Regulation CSF2” value (primary human MSC cells; CSA-13 at 5.0 μM) was −1.8551 and the “Fold Regulation CXCL2” value (primary human MSC cells; CSA-13 at 5.0 μM) was 14.3964. The “Fold Regulation F13A1” value (primary human MSC cells; CSA-13 at 5.0 μM) was 2.0963, the “Fold Regulation FGF2” value (primary human MSC cells; CSA-13 at 5.0 μM) was −1.6016 and the “Fold Regulation FGF10” value (primary human MSC cells; CSA-13 at 5.0 μM) was 2.2811. The “Fold Regulation HBEGF” value (primary human MSC cells; CSA-13 at 5.0 μM) was 3.5463, the “Fold Regulation IL2” value (primary human MSC cells; CSA-13 at 5.0 μM) was 2.1928 and the “Fold Regulation IL6” value (primary human MSC cells; CSA-13 at 5.0 μM) was 4.0387. For the same compound, the “Fold Regulation IL10” value (primary human MSC cells; CSA-13 at 5.0 μM) was −2.0128, the “Fold Regulation ITGA2” value (primary human MSC cells; CSA-13 at 5.0 μM) was 16.0648 and the “Fold Regulation ITGB3” value (primary human MSC cells; CSA-13 at 5.0 μM) was −1.5802. The “Fold Regulation MMP1” value (primary human MSC cells; CSA-13 at 5.0 μM) was 68.9688, the “Fold Regulation PLAT” value (primary human MSC cells; CSA-13 at 5.0 μM) was −1.754 and the “Fold Regulation PLAU” value (primary human MSC cells; CSA-13 at 5.0 μM) was 1.6131. For the same compound, the “Fold Regulation PLAUR” value (primary human MSC cells; CSA-13 at 5.0 μM) was 2.5454, the “Fold Regulation PTGS2” value (primary human MSC cells; CSA-13 at 5.0 μM) was 48.6907 and the “Fold Regulation VEGFA” value (primary human MSC cells; CSA-13 at 5.0 μM) was 4.6052.
